For 98 molecules, cytotoxicity results are on record in ChEMBL document CHEMBL3507680, “University of Dundee, Gates Library screen for HepG2 cell viability”.

The nature of the series: Human HepG2 cell viability assay in 384 well format. Type of series: toxicity, cell-based. Also on record: dose 125 nL, time 70.5 hour; cytotoxicity at 70.5 h: concentration not given beside the values. As to conditions: HepG2 cells, read-out: Inhibition.

The structures appear in SMILES notation.

Consider `O=C(C1CCS(=O)(=O)CC1)N1CCC(c2ccc(F)cc2)C1` (stereo not drawn), for which the cytotoxicity at 70.5 h was determined as 4.45%.

For `CC(=O)c1cnc(NCCCN2CCOCC2)nc1C`, the cytotoxicity at 70.5 h turned out to be 14.7%.

Consider `Cc1cc(NC2CCN(CC3CCCO3)CC2)n2nc(C)c(C)c2n1` (stereo not drawn), for which the cytotoxicity at 70.5 h amounted to 4.66%.

`CC(C)CN(Cc1ccc(-n2cncn2)cc1)Cc1ccccn1`: the cytotoxicity at 70.5 h is -10.8%.

For the molecule `CSCCC(=O)NCc1cc2n(n1)CCCN(C1CCCCC1)C2`, the cytotoxicity at 70.5 h amounted to 34.5%.

In the case of `Cc1n[nH]c(C)c1Sc1ccccc1NC(=O)N1CCOCC(O)C1` (stereo not drawn), the cytotoxicity at 70.5 h was 2.32%.

With `CN(Cc1cccc(CCN)c1)Cc1cccc2ncccc12`, the cytotoxicity at 70.5 h is -16.2%.

With `CC(C)(O)CCc1cccc(C(=O)N2CCC[C@H]2C(N)=O)c1`, the cytotoxicity at 70.5 h is 29.2%.

Take `COCC[C@]1(O)CCN(c2ncc(Cl)cc2F)C[C@H]1C`: the cytotoxicity at 70.5 h is -12.3%.

For the molecule `O[C@@]1(CNCCCNc2cccnc2)CCCN2CCCC[C@@H]21`, the cytotoxicity at 70.5 h is -5.62%.

For `COC1CCN(S(=O)(=O)N2CCCC(c3cccc(C(=O)O)c3)C2)CC1` (stereo not drawn), the cytotoxicity at 70.5 h is -9.91%.

Regarding `COc1ncc(-c2ccc(C(N)=O)cc2)c(OC)n1`, the cytotoxicity at 70.5 h was -8.59%.

Turning to `CCN1CCc2[nH]cnc2C12CCN(C(=O)CCc1cccs1)CC2`, the cytotoxicity at 70.5 h is 6.97%.

With `COCc1nc(N(C)CCSc2ccccc2)c2cnn(C)c2n1`, the cytotoxicity at 70.5 h is -5.78%.

Consider `Cc1ccc(CN(CCN(C)C)Cc2ncc[nH]2)s1`, for which the cytotoxicity at 70.5 h was -5.13%.

As to `O[C@H]1CCCC[C@@H]1N1CCN(CCCc2ccc3c(c2)OCO3)CC1`, the cytotoxicity at 70.5 h was -6.44%.

On to `COc1c(F)cc(CN2CCC3(CC2)CN(C)C(=O)O3)cc1Cl`, for which the cytotoxicity at 70.5 h is -7.54%.

For the molecule `Cc1nc(N2CCC(C(O)c3nccn3C)CC2)c2cccnc2n1` (stereo not drawn), the cytotoxicity at 70.5 h turned out to be 18.9%.

Regarding `COCCN1CCCC(O)(CN2CCN(c3ccncc3C)CC2)C1=O` (stereo not drawn), the cytotoxicity at 70.5 h is 5.87%.

Turning to `CCOC(=O)N1CCC(N2Cc3ncccc3C2=O)CC1`, the cytotoxicity at 70.5 h is 3.24%.

`CN(CCn1ccc2ccccc21)C(=O)Cc1nnn[nH]1`: the cytotoxicity at 70.5 h stood at 17.9%.

Turning to `O=C1CC(NCc2cnc(-c3cccs3)nc2)CN1c1ccccc1` (stereo not drawn), the cytotoxicity at 70.5 h is -2.68%.

In the case of `CCN(Cc1nc(C)no1)C(=O)C1CC(=O)N(Cc2cccnc2)C1` (stereo not drawn), the cytotoxicity at 70.5 h amounted to 17.6%.

Regarding `COc1cccc(CN2CCN(c3noc(C(C)C)n3)CC2)c1F`, the cytotoxicity at 70.5 h came to 1.87%.

As to `CCOc1ncccc1Cn1cc(-c2nccn2C)nn1`, the cytotoxicity at 70.5 h is -10.3%.

Take `O=C1CCC(C(=O)N2CCOC(Cc3ccccc3Cl)C2)=NN1` (stereo not drawn): the cytotoxicity at 70.5 h was -8.63%.

For the molecule `c1c(-c2nc(CN3CCOCC3)no2)nnn1CC1CCCCC1`, the cytotoxicity at 70.5 h was -13.5%.

Consider `CCn1nc(CC(C)C)cc1C(=O)NCCS(=O)(=O)N(C)C`, for which the cytotoxicity at 70.5 h came out at 3.89%.

With `CC(=O)NCCCc1ncnn1-c1cccc(Cl)c1`, the cytotoxicity at 70.5 h turned out to be 1.57%.

As to `CN(C)C(=O)N1CCN(C(=O)Nc2nc(-c3ccccc3)ns2)CC1`, the cytotoxicity at 70.5 h is -5.92%.

Turning to `COCCCN1C(=O)CC[C@H]2CN(Cc3ccc4nonc4c3)CC[C@H]21`, the cytotoxicity at 70.5 h is -5.42%.

Regarding `CC(C)=CCN1C[C@H]2CC[C@@H]1CN(C(=O)Cc1c(C)nc(C)[nH]c1=O)C2`, the cytotoxicity at 70.5 h is 1.03%.

With `CN(C)c1cnn(CC(=O)N2Cc3ccccc3C2)c(=O)c1`, the cytotoxicity at 70.5 h worked out at 22%.

For the molecule `O=C1C[C@H]2CC[C@@H](CN1)N2C1CCOCC1`, the cytotoxicity at 70.5 h was -1.49%.

For `O=c1[nH]ccc2cc(-c3cc(O)cc(CCC4CCCCN4)c3)ccc12` (stereo not drawn), the cytotoxicity at 70.5 h was -7.29%.

In the case of `Cc1sc2nc(CCN)nc(N(CCN(C)C)CC3CCCO3)c2c1C` (stereo not drawn), the cytotoxicity at 70.5 h stood at 5.16%.

Turning to `Cc1noc(C(C)N(C)CC(=O)NCCc2ccc(Cl)cc2)n1` (stereo not drawn), the cytotoxicity at 70.5 h was determined as 24.6%.

For the molecule `CC(=O)NCc1cc2n(n1)CCN(Cc1ccccc1OC(F)(F)F)C2`, the cytotoxicity at 70.5 h was -3.35%.

In the case of `COc1cc(C(=O)NCCS(=O)(=O)N(C)C)c2ccccc2n1`, the cytotoxicity at 70.5 h came out at 1.37%.

As for `CC1(C)CC(CC(=O)N2CC(C)(C)[C@@](C)(O)C2)CC(C)(C)N1`, the cytotoxicity at 70.5 h is 13%.

Consider `Cc1ccccc1Oc1ncccc1CNS(=O)(=O)N(C)C`, for which the cytotoxicity at 70.5 h is -1.73%.

With `Cc1nnsc1CNC(=O)CSCc1ccccc1Cl`, the cytotoxicity at 70.5 h was -7.02%.

With `CN1CC2(CCN(Cc3cc(Cl)ccc3OCC(=O)O)CC2)OC1=O`, the cytotoxicity at 70.5 h was -8.9%.

As to `Cc1c(Cl)cc(C(=O)N(CCO)Cc2nccn2C)cc1Cl`, the cytotoxicity at 70.5 h was -0.75%.

Turning to `CC1(C)Cc2c(cnn2-c2ccccc2)C(NC2CCSCC2)C1` (stereo not drawn), the cytotoxicity at 70.5 h was -5.66%.

In the case of `Cc1nccc(-c2ccccc2)c1C(=O)N1CCC2(CCCO2)CC1`, the cytotoxicity at 70.5 h stood at 2.47%.

For `Cc1cc(C)cc(CCC(=O)N2CCN(c3cc(C)nc(N)n3)CC2)c1`, the cytotoxicity at 70.5 h is 6.95%.

For the molecule `CC(C)(C)c1ccn(C2(C(=O)O)CCN(c3ncccc3C#N)CC2)n1`, the cytotoxicity at 70.5 h is -2.37%.

`COCCN(Cc1ccncc1)C(=O)C1COc2ccccc2C1` (stereo not drawn): the cytotoxicity at 70.5 h is -6.32%.

Turning to `CC(=O)N[C@@H]1CN(C(=O)c2cc3sccc3[nH]2)C[C@H]1c1ccc(C)o1`, the cytotoxicity at 70.5 h was -3.33%.

For the molecule `Cc1cnccc1Cn1ccnc1C1CCOC1` (stereo not drawn), the cytotoxicity at 70.5 h was -7.66%.

`COCCN(C)[C@@H]1c2ccccc2C2(CCNCC2)[C@H]1O`: the cytotoxicity at 70.5 h was -4.67%.

As for `CCc1n[nH]c(C(=O)NCCn2ccnc2C)c1C`, the cytotoxicity at 70.5 h is -5.75%.

In the case of `c1ccc(C2CN(C3CC3)CC3(CCN(Cc4ncc[nH]4)CC3)C2)cc1` (stereo not drawn), the cytotoxicity at 70.5 h was -6.48%.

On to `CC1(C)CNC(=O)c2nc(CCN3CCCCC3CO)[nH]c2C1` (stereo not drawn), for which the cytotoxicity at 70.5 h turned out to be 4.33%.

Take `COc1ccc(CN2CCC=C(C(C)NC(C)=O)C2)cc1` (stereo not drawn): the cytotoxicity at 70.5 h is -10.1%.

On to `COCCCC1CCCCN1Cc1cc(F)ccc1-n1cccn1` (stereo not drawn), for which the cytotoxicity at 70.5 h was 9.72%.

Regarding `Cc1nc(CN2CC(=O)N(C)c3ccccc3C2=O)no1`, the cytotoxicity at 70.5 h was -1.75%.

Consider `CC(=O)N1C[C@H](NS(=O)(=O)N2CCOCC2)[C@@H](c2ccc(C)o2)C1`, for which the cytotoxicity at 70.5 h is -7.85%.

In the case of `COc1ccc(CN(Cc2ccsc2)CC2CCCO2)cn1` (stereo not drawn), the cytotoxicity at 70.5 h is -2.5%.

On to `COc1ccccc1OC1CN(C(=O)C(c2ccc(F)cc2)N(C)C)C1` (stereo not drawn), for which the cytotoxicity at 70.5 h was -1.1%.

As for `NCC1CN(c2nc(-c3cccnc3)nc3c2CCNCC3)CCO1` (stereo not drawn), the cytotoxicity at 70.5 h was found to be 26.4%.

Consider `NC(=O)NCC(=O)N1CCC(c2cc(-c3ccccc3Cl)n[nH]2)CC1`, for which the cytotoxicity at 70.5 h was -4.95%.

As for `CSCCNC(=O)c1coc(COc2ccc3sc(C)nc3c2)n1`, the cytotoxicity at 70.5 h is -13.9%.

For `c1ccc2c(c1)ccn2CCCNC1CCOC2(CCOCC2)C1` (stereo not drawn), the cytotoxicity at 70.5 h turned out to be 32.9%.

Consider `COCCCN1C(=O)CC[C@H]2CN(Cc3ncc[nH]3)CC[C@H]21`, for which the cytotoxicity at 70.5 h was 8.43%.

Consider `Cn1cc(C(=O)N2CC[C@@]3(O)CCN(C(=O)C4CCC4)C[C@H]3C2)cn1`, for which the cytotoxicity at 70.5 h stood at 3.54%.

For `CC(C)c1noc(-c2ccc(NCCCC3CCOC3)nc2)n1` (stereo not drawn), the cytotoxicity at 70.5 h is -0.0541%.

Regarding `Cc1cc(N2CCC(n3cc(CN4CCC[C@@H]4CO)nn3)CC2)ccn1`, the cytotoxicity at 70.5 h is -8.62%.

In the case of `Cn1ccnc1CN1CCC(Cn2cc(-c3ccncc3)nn2)CC1`, the cytotoxicity at 70.5 h is 3.24%.

With `O=C(NC1CCCCC1)[C@H]1CNC[C@@H](COc2cccnc2)C1`, the cytotoxicity at 70.5 h is -3.95%.

As for `Cc1ccc(-c2cc(CNc3ncnc4c3CCNCC4)no2)cc1`, the cytotoxicity at 70.5 h worked out at 1.89%.

With `CSc1ccccc1CCC1CCS(=O)(=O)C1` (stereo not drawn), the cytotoxicity at 70.5 h is -1.45%.

Regarding `O=C(c1ccc(Cl)cc1F)N1CCC(Cn2cc(CO)nn2)CC1`, the cytotoxicity at 70.5 h was -5.57%.

Consider `O=C(CCn1ccc2ncccc2c1=O)N1CCCC1`, for which the cytotoxicity at 70.5 h turned out to be 0.26%.

Turning to `COc1c(F)cccc1C(=O)N(C)Cc1nc(-c2ccccn2)no1`, the cytotoxicity at 70.5 h was -6.48%.

In the case of `O=C1CCC2(CCCN(CCn3cc(Cl)cn3)C2)CN1C1CCCC1` (stereo not drawn), the cytotoxicity at 70.5 h is -19.7%.

As for `CCN(Cc1ccncc1)C1CCCN(Cc2ccc(F)cc2OC)C1` (stereo not drawn), the cytotoxicity at 70.5 h was -1.99%.

With `Cc1nc(CNC2CC(=O)N(CCc3cccc(Cl)c3)C2)c[nH]1` (stereo not drawn), the cytotoxicity at 70.5 h is -5.42%.

With `CCn1c(CC2CCN(C(=O)c3cc(CC(C)C)on3)CC2)n[nH]c1=O`, the cytotoxicity at 70.5 h was -2.52%.

Regarding `CC(=O)N1CCCN(C(C(=O)O)c2ccc(C)cc2C)CC1` (stereo not drawn), the cytotoxicity at 70.5 h was -10.9%.

For the molecule `Cc1cc(C(=O)NCCCn2nccc2C2CC2)c(=O)[nH]c1C`, the cytotoxicity at 70.5 h was -14.7%.

On to `CCCOCCn1ncc(N2CCc3ccccc3C2)cc1=O`, for which the cytotoxicity at 70.5 h was -1.9%.

For `COc1ccc(C(=O)N2CCC(Oc3ccc(C)cc3)(C(=O)O)CC2)o1`, the cytotoxicity at 70.5 h was 0.709%.

As to `CC(c1cccc(-c2ncccc2C#N)c1)N(C)C` (stereo not drawn), the cytotoxicity at 70.5 h is -15.1%.

On to `O=C(CCC1CCN(C2Cc3ccccc3C2)CC1)NCC1CCCO1` (stereo not drawn), for which the cytotoxicity at 70.5 h is 25.6%.

For the molecule `Cc1cnc(C)c(N2CCC(Cc3ccccc3Cl)(C(=O)O)CC2)n1`, the cytotoxicity at 70.5 h was -8.45%.

Regarding `CCn1cc(C(=O)NCCN2CCCc3ccccc32)c(C)n1`, the cytotoxicity at 70.5 h was -0.0816%.

Take `CNc1cc(C(=O)NCCC2=CSC3=NCCCN23)ccn1`: the cytotoxicity at 70.5 h was 1.26%.

With `CC(C)c1nc(CN(C)C(=O)c2ccc3c(c2)OCO3)cs1`, the cytotoxicity at 70.5 h was -9.84%.

Take `CCNC(=O)[C@@H]1C[C@H](NC(=O)c2cc(CC)n[nH]2)CN1Cc1ccsc1`: the cytotoxicity at 70.5 h was -6.78%.

Regarding `Cc1cc(C)n(CCN(C)c2ccc(-c3nc(C4CC4)no3)cn2)n1`, the cytotoxicity at 70.5 h came to 10.5%.

Consider `Clc1ccccc1CCn1ccnc1-c1cn(C2CCNCC2)nn1`, for which the cytotoxicity at 70.5 h was -8.18%.

For `Cc1ccc2c(c1)SCC(=O)N2Cc1noc(C2CC2)n1`, the cytotoxicity at 70.5 h was 16.3%.

Regarding `CNC(=O)C1CCCN1c1nc(C)c2ccccc2n1` (stereo not drawn), the cytotoxicity at 70.5 h was -16.3%.

Regarding `Cc1ccc(C(=O)N2CCCC(Nc3ccc(F)cc3)C2)cc1` (stereo not drawn), the cytotoxicity at 70.5 h is -1.63%.

With `CN(CCn1ccc2ccccc21)C(=O)CS(C)(=O)=O`, the cytotoxicity at 70.5 h turned out to be 18%.

Turning to `COCC[C@]1(O)CCN(Cc2nnc(C)s2)C[C@H]1C`, the cytotoxicity at 70.5 h is -9.14%.
